In ChEMBL document CHEMBL3046434, “cAMP-dependent phosphodiesterase inhibition and SAR studies on novel 6,8-disubstituted 2-phenyl-3-(substituted benzothiazole-2-yl)-4[3H]-quinazolinone” (Med Chem Res, 2009) one finds Ratio data, which are given here for 27 compounds.

Structures are written as SMILES.

This test deals with T1, PDE7B protein (Bos taurus) (UniProt A6QP37).
T1 sequence (whole entry): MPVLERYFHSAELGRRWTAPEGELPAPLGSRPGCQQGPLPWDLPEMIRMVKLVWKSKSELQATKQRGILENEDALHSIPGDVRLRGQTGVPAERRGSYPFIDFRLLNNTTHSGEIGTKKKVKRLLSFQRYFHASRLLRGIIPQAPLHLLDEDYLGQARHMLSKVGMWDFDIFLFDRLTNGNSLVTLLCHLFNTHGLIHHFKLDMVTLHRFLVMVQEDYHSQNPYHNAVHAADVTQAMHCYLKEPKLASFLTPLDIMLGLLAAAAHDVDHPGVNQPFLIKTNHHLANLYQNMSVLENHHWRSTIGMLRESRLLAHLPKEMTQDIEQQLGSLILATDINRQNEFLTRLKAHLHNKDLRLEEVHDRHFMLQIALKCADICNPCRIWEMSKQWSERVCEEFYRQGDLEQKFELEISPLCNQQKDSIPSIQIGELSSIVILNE
The test can be described thus: Inhibition of Bos taurus (bovine) heart cAMP-dependent phosphodiesterase assessed as inhibition of cyclic AMP to 5' AMP after 20 min by spectrophotometry relative to theophylline.
For the compound `CCOc1ccc2nc(-n3c(-c4ccccc4)nc4c(Br)cc(Br)cc4c3=O)sc2c1`, the Ratio worked out at 1.19.
As for `Cc1cc(C)c2nc(-n3c(-c4ccccc4)nc4c(Br)cc(Br)cc4c3=O)sc2c1`, the Ratio was 1.17.
`COc1ccc2sc(-n3c(-c4ccccc4)nc4ccccc4c3=O)nc2c1`: the Ratio was determined as 1.34.
Take `Cc1cccc2sc(-n3c(-c4ccccc4)nc4ccccc4c3=O)nc12`: the Ratio worked out at 1.27.
For the compound `CCOc1cccc2sc(-n3c(-c4ccccc4)nc4ccccc4c3=O)nc12`, the Ratio worked out at 1.38.
With `O=c1c2ccccc2nc(-c2ccccc2)n1-c1nc2ccccc2s1`, the Ratio turned out to be 1.22.
With `COc1cccc2sc(-n3c(-c4ccccc4)nc4c(Br)cc(Br)cc4c3=O)nc12` the figure was 1.18; with `CCOc1ccc2sc(-n3c(-c4ccccc4)nc4ccccc4c3=O)nc2c1`, 1.41; with `O=c1c2ccccc2nc(-c2ccccc2)n1-c1nc2ccc([N+](=O)[O-])cc2s1`, 1.47.
For `CCOc1cccc2sc(-n3c(-c4ccccc4)nc4c(Br)cc(Br)cc4c3=O)nc12`, the Ratio was found to be 1.21.
For `O=c1c2ccccc2nc(-c2ccccc2)n1-c1nc2cc(Cl)ccc2s1`, the Ratio amounted to 1.21.
For the compound `Cc1cccc2sc(-n3c(-c4ccccc4)nc4c(Br)cc(Br)cc4c3=O)nc12`, the Ratio came to 1.14.
Turning to `COc1ccc2nc(-n3c(-c4ccccc4)nc4ccccc4c3=O)sc2c1`, the Ratio came out at 1.35.
For `O=c1c2cc(Br)cc(Br)c2nc(-c2ccccc2)n1-c1nc2ccc([N+](=O)[O-])cc2s1` the value was 0.869.
In the case of `O=c1c2ccccc2nc(-c2ccccc2)n1-c1nc2ccc(Br)cc2s1`, the Ratio is 1.28.
With `Cn1c(=O)c2[nH]cnc2n(C)c1=O`, the Ratio came to 1.
Take `O=c1c2cc(Br)cc(Br)c2nc(-c2ccccc2)n1-c1nc2cc(Cl)ccc2s1`: the Ratio was determined as 0.844.
In the case of `CCOc1ccc2nc(-n3c(-c4ccccc4)nc4ccccc4c3=O)sc2c1`, the Ratio is 1.38.
With `COc1ccc2sc(-n3c(-c4ccccc4)nc4c(Br)cc(Br)cc4c3=O)nc2c1`, the Ratio worked out at 1.18.
Regarding `COc1cccc2sc(-n3c(-c4ccccc4)nc4ccccc4c3=O)nc12`, the Ratio was 1.33.
As for `CCOc1ccc2sc(-n3c(-c4ccccc4)nc4c(Br)cc(Br)cc4c3=O)nc2c1`, the Ratio worked out at 1.22.
For `O=c1c2cc(Br)cc(Br)c2nc(-c2ccccc2)n1-c1nc2ccccc2s1`, the Ratio is 1.08.
In the case of `COc1ccc2nc(-n3c(-c4ccccc4)nc4c(Br)cc(Br)cc4c3=O)sc2c1`, the Ratio was 1.2.
Turning to `Cc1ccc2sc(-n3c(-c4ccccc4)nc4ccccc4c3=O)nc2c1`, the Ratio worked out at 1.29.
For `O=c1c2cc(Br)cc(Br)c2nc(-c2ccccc2)n1-c1nc2ccc(Br)cc2s1` the value was 0.927; for `Cc1cc(C)c2nc(-n3c(-c4ccccc4)nc4ccccc4c3=O)sc2c1`, 1.35; for `Cc1ccc2sc(-n3c(-c4ccccc4)nc4c(Br)cc(Br)cc4c3=O)nc2c1`, 1.13.
